Activity calls are given as the source filed them. For most assays here, no stated cut-off is given here; in the data, actives have a measured EC50 and inactives only a lower limit.
tested on: not listed separately; assay: Luminescence Cell-Based Dose Confirmation HTS to Identify Activators of 5'UTR Stem-Loop Driven Alpha-Synuclein mRNA Translation in H4 Neuroglioblastoma Cells. [Related pubchem assays: 1829 (Project Summary), 1814 (Primary HTS)]; format: functional; conditions: not given

**Q.** With `COc1ccc2cc3cc(C(=O)NCCN4CCc5ccccc5C4)sc3nc2c1` as the molecule, how does the EC50 read?
**A.** 6.85 µM (active)

**Q.** For `N#CC1=C(N)Oc2cc(N)ccc2C1C1CCCCC1` (configuration not stated), which EC50 is on record?
**A.** > 120 µM (not active)

**Q.** Which EC50 does the source give for `COc1ccc(-c2cc3cc(OC)c(OC)cc3cn2)cc1OC` here?
**A.** 10.2 µM (active)

**Q.** For `COc1cccc(C2(O)CC(C(F)(F)F)=NN2C(=O)c2ccccn2)c1` (configuration not stated), which EC50 is on record?
**A.** 18.5 µM (active)

**Q.** Which EC50 does the source give for `CCCOc1ccc(OCCSc2nnc(N)s2)cc1` here?
**A.** 23.1 µM (active)

**Q.** With `CC(=O)c1cc(-c2ccccc2)n(CC(=O)NC2CCCC2)c1C` as the molecule, how does the EC50 read?
**A.** > 120 µM (not active)

**Q.** With `COc1cc2c(cc1NC(=O)CSc1ccccn1)oc1ccccc12` as the molecule, how does the EC50 read?
**A.** 10.9 µM (active)

**Q.** Which EC50 does the source give for `Nc1ccc(Cc2nc3c(ccc4ccccc43)[nH]2)cc1` here?
**A.** 14 µM (active)

**Q.** Which EC50 does the source give for `O=C1C2C3C=CC(CO)(O3)C2C(=O)N1c1ccc(-c2ccccc2)cc1` (configuration not stated) here?
**A.** > 120 µM (not active)

**Q.** With `Cc1ccc(C2CN=NC23CCc2ccccc2C3=O)cc1` (configuration not stated) as the molecule, how does the EC50 read?
**A.** 15.3 µM (active)

molecular target: T1, Corticotropin-releasing factor receptor 2/Corticotropin-releasing factor-binding protein (Homo sapiens, UniProt P24387+Q13324); assay: Dose Response confirmation of uHTS hits for small molecule antagonists of the CRF-binding protein and CRF-R2 receptor complex.; format: functional; conditions: read-out: IC50_Mean
T1 sequence (Q13324 whole entry): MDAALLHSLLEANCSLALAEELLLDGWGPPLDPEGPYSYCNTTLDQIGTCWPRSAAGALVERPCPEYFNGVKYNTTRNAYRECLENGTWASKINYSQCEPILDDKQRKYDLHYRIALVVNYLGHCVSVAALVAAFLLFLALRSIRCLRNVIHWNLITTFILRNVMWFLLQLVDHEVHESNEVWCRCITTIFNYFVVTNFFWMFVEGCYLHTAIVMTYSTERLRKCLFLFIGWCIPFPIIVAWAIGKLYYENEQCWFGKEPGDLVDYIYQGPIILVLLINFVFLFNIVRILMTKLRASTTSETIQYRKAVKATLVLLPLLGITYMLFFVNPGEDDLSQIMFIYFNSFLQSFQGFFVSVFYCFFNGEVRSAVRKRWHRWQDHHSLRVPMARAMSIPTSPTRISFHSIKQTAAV
T1 sequence (P24387 whole entry): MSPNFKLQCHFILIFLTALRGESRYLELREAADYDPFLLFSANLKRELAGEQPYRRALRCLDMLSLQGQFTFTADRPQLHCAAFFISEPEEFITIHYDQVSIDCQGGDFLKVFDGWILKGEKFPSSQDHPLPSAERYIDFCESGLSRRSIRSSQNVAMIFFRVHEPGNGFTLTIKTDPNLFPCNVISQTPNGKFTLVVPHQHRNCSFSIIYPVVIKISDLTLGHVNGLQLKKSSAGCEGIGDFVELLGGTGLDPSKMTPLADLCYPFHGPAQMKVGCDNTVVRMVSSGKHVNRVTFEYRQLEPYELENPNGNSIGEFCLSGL

**Q.** Which IC50 does the source give for `CC(C)(C)c1nc(CN2CCCCC2)cc(CN2CCCCC2)c1O` here?
**A.** > 47.1 µM (inactive)

**Q.** Which IC50 does the source give for `COc1ccc(OC(=O)c2ccc(Cl)cc2)c(C(C)=O)c1` here?
**A.** > 47.1 µM (inactive)

**Q.** Which IC50 does the source give for `CC(Sc1nnc(Cc2cccs2)n1C1CC1)C(=O)NC1CCS(=O)(=O)C1` (configuration not stated) here?
**A.** > 47.1 µM (inactive)

**Q.** For `CCOC(=O)C1CCCN(C(=O)c2cccc(S(=O)(=O)N(Cc3ccccc3)c3ccccc3OC)c2)C1` (configuration not stated), which IC50 is on record?
**A.** > 47.1 µM (inactive)

**Q.** For `COc1ccc(OCC(O)CN2CCc3ccccc3C2)cc1` (configuration not stated), which IC50 is on record?
**A.** > 47.1 µM (inactive)

**Q.** For `CC(C)(C)C(=O)NC(=S)NCCc1ccccc1`, which IC50 is on record?
**A.** > 47.1 µM (inactive)

**Q.** Which IC50 does the source give for `CC1(C)c2[nH]c3ccccc3c2C[C@H]2C(=O)N(Cc3ccccc3)C(=O)N21` here?
**A.** > 47.1 µM (inactive)

tested on: H4; assay: Luminescence Cell-Based Dose Response HTS to Identify Activators of 5'UTR Stem-Loop Driven Prion Protein mRNA Translation in H4 Neuroglioblastoma Cells. [Related pubchem assays: 1829 (Project Summary), 1814 (Primary HTS)]; format: functional; conditions: Homo sapiens

**Q.** For `COc1ccc2cc3cc(C(=O)NCCN4CCc5ccccc5C4)sc3nc2c1`, which EC50 is on record?
**A.** 15.1 µM (active)

**Q.** With `N#CC1=C(N)Oc2cc(N)ccc2C1C1CCCCC1` (configuration not stated) as the molecule, how does the EC50 read?
**A.** > 120 µM (not active)

**Q.** With `COc1ccc(-c2cc3cc(OC)c(OC)cc3cn2)cc1OC` as the molecule, how does the EC50 read?
**A.** 18 µM (active)

**Q.** With `COc1cccc(C2(O)CC(C(F)(F)F)=NN2C(=O)c2ccccn2)c1` (configuration not stated) as the molecule, how does the EC50 read?
**A.** 7.55 µM (active)

**Q.** With `CCCOc1ccc(OCCSc2nnc(N)s2)cc1` as the molecule, how does the EC50 read?
**A.** 15.2 µM (active)

**Q.** For `CC(=O)c1cc(-c2ccccc2)n(CC(=O)NC2CCCC2)c1C`, which EC50 is on record?
**A.** > 120 µM (not active)

**Q.** For `COc1cc2c(cc1NC(=O)CSc1ccccn1)oc1ccccc12`, which EC50 is on record?
**A.** 30.4 µM (active)

**Q.** With `Nc1ccc(Cc2nc3c(ccc4ccccc43)[nH]2)cc1` as the molecule, how does the EC50 read?
**A.** 14.7 µM (active)

**Q.** For `O=C1C2C3C=CC(CO)(O3)C2C(=O)N1c1ccc(-c2ccccc2)cc1` (configuration not stated), which EC50 is on record?
**A.** 15.5 µM (active)

**Q.** With `Cc1ccc(C2CN=NC23CCc2ccccc2C3=O)cc1` (configuration not stated) as the molecule, how does the EC50 read?
**A.** > 120 µM (not active)

tested on: not listed separately; assay: Luminescence Cell-Based Dose Response HTS to Identify Activators of Luciferase Translation or Activity in H4 […] Cells. [Related pubchem assays: 1829 (Project Summary), 1814 (Primary HTS)]; format: functional; conditions: not given

**Q.** With `COc1ccc2cc3cc(C(=O)NCCN4CCc5ccccc5C4)sc3nc2c1` as the molecule, how does the EC50 read?
**A.** 17.8 µM (active)

**Q.** For `N#CC1=C(N)Oc2cc(N)ccc2C1C1CCCCC1` (configuration not stated), which EC50 is on record?
**A.** > 120 µM (not active)

**Q.** For `COc1ccc(-c2cc3cc(OC)c(OC)cc3cn2)cc1OC`, which EC50 is on record?
**A.** 21.7 µM (active)

**Q.** With `COc1cccc(C2(O)CC(C(F)(F)F)=NN2C(=O)c2ccccn2)c1` (configuration not stated) as the molecule, how does the EC50 read?
**A.** > 120 µM (not active)

**Q.** For `CCCOc1ccc(OCCSc2nnc(N)s2)cc1`, which EC50 is on record?
**A.** 15 µM (active)

**Q.** For `CC(=O)c1cc(-c2ccccc2)n(CC(=O)NC2CCCC2)c1C`, which EC50 is on record?
**A.** > 120 µM (not active)

**Q.** With `COc1cc2c(cc1NC(=O)CSc1ccccn1)oc1ccccc12` as the molecule, how does the EC50 read?
**A.** 15 µM (active)

**Q.** Which EC50 does the source give for `Nc1ccc(Cc2nc3c(ccc4ccccc43)[nH]2)cc1` here?
**A.** 24.8 µM (active)

**Q.** With `O=C1C2C3C=CC(CO)(O3)C2C(=O)N1c1ccc(-c2ccccc2)cc1` (configuration not stated) as the molecule, how does the EC50 read?
**A.** 8.45 µM (active)

**Q.** For `Cc1ccc(C2CN=NC23CCc2ccccc2C3=O)cc1` (configuration not stated), which EC50 is on record?
**A.** 23.9 µM (active)

tested on: not listed separately; assay: Trypanosoma cruzi growth suppression in host cells – NIH3T3 host cells, beta-gal luminescence, confirmation (AID 2044); format: functional, cell-based; conditions: not given;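 further: intracellular parasites grown in NIH/3T3 mouse fibroblasts as host cells; luminescent beta-galactosidase reporter signal from transgenic T. cruzi replicating inside host cells; inhibitors lower the luminescence signal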

**Q.** Which EC50 does the source give for `CCOC(=O)C1CCCN(C(=O)c2cccc(S(=O)(=O)N(Cc3ccccc3)c3ccccc3OC)c2)C1` (configuration not stated) here?
**A.** 3.84 µM (active)

molecular target: T1, Corticotropin-releasing factor receptor 2/Corticotropin-releasing factor-binding protein; assay: activators of CRF receptor 2 with binding protein – uHTS hits, confirmation (AID 602473); format: functional; conditions: read-out: EC50_Mean

**Q.** Which EC50 does the source give for `CC(C)(C)c1nc(CN2CCCCC2)cc(CN2CCCCC2)c1O` here?
**A.** > 53 µM (inactive)

**Q.** For `COc1ccc(OC(=O)c2ccc(Cl)cc2)c(C(C)=O)c1`, which EC50 is on record?
**A.** > 53 µM (inactive)

**Q.** With `CC(Sc1nnc(Cc2cccs2)n1C1CC1)C(=O)NC1CCS(=O)(=O)C1` (configuration not stated) as the molecule, how does the EC50 read?
**A.** > 53 µM (inactive)

**Q.** With `CCOC(=O)C1CCCN(C(=O)c2cccc(S(=O)(=O)N(Cc3ccccc3)c3ccccc3OC)c2)C1` (configuration not stated) as the molecule, how does the EC50 read?
**A.** > 53 µM (inactive)

**Q.** For `COc1ccc(OCC(O)CN2CCc3ccccc3C2)cc1` (configuration not stated), which EC50 is on record?
**A.** > 53 µM (inactive)

**Q.** For `CC(C)(C)C(=O)NC(=S)NCCc1ccccc1`, which EC50 is on record?
**A.** > 53 µM (inactive)

**Q.** Which EC50 does the source give for `CC1(C)c2[nH]c3ccccc3c2C[C@H]2C(=O)N(Cc3ccccc3)C(=O)N21` here?
**A.** > 53 µM (inactive)

tested on: not listed separately; assay: NIH3T3 cell viability loss – ATP luminescence, mouse fibroblasts, counter-screen, dose response (AID 2010); format: functional, cell-based; conditions: not given;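 further: cells exposed to compound for about 90 hours before reading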

**Q.** With `CCOC(=O)C1CCCN(C(=O)c2cccc(S(=O)(=O)N(Cc3ccccc3)c3ccccc3OC)c2)C1` (configuration not stated) as the molecule, how does the EC50 read?
**A.** 35.2 µM (active)

molecular target: Cytochrome P450 3A4 (Homo sapiens, UniProt P08684); conditions: not given;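 further: CYP3A4 tested as one member of a cytochrome P450 panel screen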
Sequence (P08684 whole entry): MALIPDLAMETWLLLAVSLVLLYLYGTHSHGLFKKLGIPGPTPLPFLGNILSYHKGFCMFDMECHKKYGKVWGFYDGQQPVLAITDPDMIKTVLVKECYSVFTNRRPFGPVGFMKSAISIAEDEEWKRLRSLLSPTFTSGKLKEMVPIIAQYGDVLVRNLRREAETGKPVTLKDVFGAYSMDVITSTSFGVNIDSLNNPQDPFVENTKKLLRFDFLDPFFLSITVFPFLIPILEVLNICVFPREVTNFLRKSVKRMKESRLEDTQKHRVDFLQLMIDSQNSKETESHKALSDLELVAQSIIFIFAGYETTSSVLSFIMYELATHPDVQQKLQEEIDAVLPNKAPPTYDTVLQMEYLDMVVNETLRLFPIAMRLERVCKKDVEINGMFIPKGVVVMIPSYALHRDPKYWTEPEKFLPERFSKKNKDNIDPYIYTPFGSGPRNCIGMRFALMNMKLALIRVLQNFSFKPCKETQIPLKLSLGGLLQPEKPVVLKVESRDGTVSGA

**Q.** Which AC50 does the source give for `CC(C)(C)C(=O)NC(=S)NCCc1ccccc1` here?
**A.** 25.1 µM (inconclusive)

Reference: ChEMBL document CHEMBL1201862, “PubChem BioAssay data set” (2004)
